Like-named read-outs stand apart in the source and are kept apart here.
Assay: Ocular tissue and plasma pharmacokinetics, 15 mg/kg oral, New Zealand White rabbits (Example 3/5)
Type: in vivo
[1] = Choroid-RPE, NZW rabbit, 15 mg/kg single dose, Day 1
[2] = NZW rabbit, 15 mg/kg single oral dose, Day 1, 0 h, 15 mg/kg
[3] = NZW rabbit, 15 mg/kg single oral dose, Day 1, 6 h, 15 mg/kg
[4] = NZW rabbit, 15 mg/kg single oral dose, Day 1, 24 h
[5] = NZW rabbit, 15 mg/kg single oral dose, Day 1, 24 h, 15 mg/kg
[6] = NZW rabbit, 15 mg/kg single oral dose, Day 1, 96 h
[7] = NZW rabbit, 15 mg/kg single oral dose, Day 1, 96 h, 15 mg/kg
[8] = NZW rabbit, 15 mg/kg single oral dose, Day 1, 168 h
[9] = NZW rabbit, 15 mg/kg single oral dose, Day 1, 168 h, 15 mg/kg
[10] = NZW rabbit, 15 mg/kg single oral dose, Day 1, 240 h, 15 mg/kg
[11] = NZW rabbits, Day 1, 15 mg/kg single dose, 0 hr
[12] = NZW rabbits, Day 1, 15 mg/kg single dose, 168 hr
[13] = NZW rabbits, Day 1, 15 mg/kg single dose, 240 hr
[14] = New Zealand White, po, Iris-Ciliary Body, NZW rabbit, 15 mg/kg single dose, Day 1
[15] = New Zealand White, po, Vitreous Humor, NZW rabbit, 15 mg/kg single dose, Day 1
[16] = plasma, NZW rabbit, 15 mg/kg single dose, Day 1
[17] = retina, NZW rabbit, 15 mg/kg single dose, Day 1

With `CC(=O)c1nn(CC(=O)N2C[C@H](F)C[C@H]2C(=O)Nc2cccc(Br)n2)c2ccc(-c3cnc(C)nc3)cc12` [Compound 1, (2S,4R)-1-(2-(3-Acetyl-5-(2-methylpyrimidin-5-yl)-1H-indazol-1-yl)acetyl)-N-(6-bromopyridin-2-yl)-4-fluoropyrrolidine-2-carboxamide] as the compound, how does the MRTlast [1] read?
The MRTlast was 5.87 h.

And the Tlast [1]?
The Tlast was 24 h.

And the Tlast (Iris-Ciliary Body, NZW rabbit, 15 mg/kg single dose, Day 1)?
The Tlast was 1 h.

What about the “Mean Vitreous Humor concentration” value (NZW rabbit, 15 mg/kg single oral dose, Day 1, 0 h) of the same compound?
Its value is “BLQ^a”.

And the “Mean Choroid-RPE concentration” value [2]?
The value was “BLQ^a and BLQ”.

And the “Mean Iris-Ciliary Body concentration” value [2]?
Its value is “BLQ^a and BLQ”.

What about the Mean plasma concentration [2] of the same compound?
The Mean plasma concentration was “BLQ^a and BLQ”.

What about the Mean retina concentration [2] of the same compound?
The Mean retina concentration was “BLQ^a and BLQ”.

And the “Mean Aqueous Humor concentration” value (NZW rabbit, 15 mg/kg single oral dose, Day 1, 6 h)?
The value was “BLQ^a”.

And the “Mean Iris-Ciliary Body concentration” value [3]?
The value was “BLQ^a and BLQ”.

And the Mean retina concentration [3]?
Its Mean retina concentration is 26 ng/g.

And the “Mean Aqueous Humor concentration” value [4]?
Its value is “BLQ^a”.

And the “Mean Vitreous Humor concentration” value [4]?
Its value is “BLQ^a”.

What about the “Mean Iris-Ciliary Body concentration” value [5] of the same compound?
The value was “BLQ^a and BLQ”.

What about the Mean retina concentration [5] of the same compound?
The Mean retina concentration was “BLQ^a and BLQ”.

What about the “Mean Aqueous Humor concentration” value [6] of the same compound?
The value was “BLQ^a”.

What about the “Mean Vitreous Humor concentration” value [6] of the same compound?
The value was “BLQ^a”.

And the “Mean Choroid-RPE concentration” value [7]?
Its value is “BLQ^a and BLQ”.

What about the “Mean Iris-Ciliary Body concentration” value [7] of the same compound?
Its value is “BLQ^a and BLQ”.

What about the Mean plasma concentration [7] of the same compound?
The Mean plasma concentration was “BLQ^a and BLQ”.

What about the Mean retina concentration [7] of the same compound?
Its Mean retina concentration is “BLQ^a and BLQ”.

And the “Mean Aqueous Humor concentration” value [8]?
The value was “BLQ^a”.

And the “Mean Vitreous Humor concentration” value [8]?
Its value is “BLQ^a”.

What about the “Mean Choroid-RPE concentration” value [9] of the same compound?
Its value is “BLQ^a and BLQ”.

What about the “Mean Iris-Ciliary Body concentration” value [9] of the same compound?
Its value is “BLQ^a and BLQ”.

And the Mean retina concentration [9]?
The Mean retina concentration was “BLQ^a and BLQ”.

What about the “Mean Aqueous Humor concentration” value (NZW rabbit, 15 mg/kg single oral dose, Day 1, 240 h) of the same compound?
Its value is “BLQ^a”.

And the “Mean Choroid-RPE concentration” value [10]?
Its value is “BLQ^a and BLQ”.

And the “Mean Iris-Ciliary Body concentration” value [10]?
Its value is “BLQ^a and BLQ”.

What about the Mean plasma concentration [10] of the same compound?
Its Mean plasma concentration is “BLQ^a and BLQ”.

What about the Mean retina concentration [10] of the same compound?
Its Mean retina concentration is “BLQ^a and BLQ”.

And the “Mean Choroid-RPE concentration” value [11]?
The value was “BLQ”.

What about the “Mean retina concentration” value [11] of the same compound?
The value was “BLQ”.

What about the “Mean retina concentration” value (NZW rabbits, Day 1, 15 mg/kg single dose, 24 hr) of the same compound?
Its value is “BLQ”.

And the “Mean Choroid-RPE concentration” value (NZW rabbits, Day 1, 15 mg/kg single dose, 96 hr)?
Its value is “BLQ”.

And the “Mean Choroid-RPE concentration” value [12]?
The value was “BLQ”.

What about the “Mean retina concentration” value [12] of the same compound?
The value was “BLQ”.

And the “Mean Choroid-RPE concentration” value [13]?
The value was “BLQ”.

And the “Mean retina concentration” value [13]?
Its value is “BLQ”.

And the concentration at 1 h (New Zealand White, aqueous humor, NZW rabbit, 15 mg/kg single oral dose, Day 1, 1 h, read-out: Mean Aqueous Humor concentration)?
Its concentration at 1 h is 4 ng/mL.

And the concentration at 1 h (New Zealand White, choroid-RPE, NZW rabbit, 15 mg/kg single oral dose, Day 1, 1 h, read-out: Mean Choroid-RPE concentration)?
The concentration at 1 h was 172 ng/g.

And the concentration at 6 h (New Zealand White, choroid-RPE, NZW rabbit, 15 mg/kg single oral dose, Day 1, 6 h, read-out: Mean Choroid-RPE concentration)?
Its concentration at 6 h is 31.5 ng/g.

And the concentration at 24 h (New Zealand White, choroid-RPE, NZW rabbit, 15 mg/kg single oral dose, Day 1, 24 h, read-out: Mean Choroid-RPE concentration)?
Its concentration at 24 h is 15.1 ng/g.

What about the concentration at 1 h (New Zealand White, plasma, NZW rabbit, 15 mg/kg single oral dose, Day 1, 1 h, read-out: Mean plasma concentration) of the same compound?
The concentration at 1 h was 310 ng/mL.

What about the concentration at 6 h (New Zealand White, plasma, NZW rabbit, 15 mg/kg single oral dose, Day 1, 6 h, read-out: Mean plasma concentration) of the same compound?
The concentration at 6 h was 35.1 ng/mL.

And the concentration at 24 h (New Zealand White, plasma, NZW rabbit, 15 mg/kg single oral dose, Day 1, 24 h, read-out: Mean plasma concentration)?
Its concentration at 24 h is 11.1 ng/mL.

What about the Cmax [14] of the same compound?
The Cmax was 117 ng/g.

And the MRT last [14]?
Its MRT last is 1 h.

And the AUC(0-t) [15]?
The AUC(0-t) was 30.3 ng·h/mL.

What about the Cmax [15] of the same compound?
The Cmax was 7.61 ng/mL.

And the Cmax (New Zealand White, po, plasma, NZW rabbit, 15 mg/kg single dose, Day 1)?
The Cmax was 310 ng/mL.

What about the concentration at 1 h (New Zealand White, rabbit, choroid-RPE, oral, NZW rabbits, Day 1, 15 mg/kg single dose, 1 hr, read-out: Mean Choroid-RPE Concentration) of the same compound?
Its concentration at 1 h is 172 ng/g.

And the concentration at 6 h (New Zealand White, rabbit, choroid-RPE, oral, NZW rabbits, Day 1, 15 mg/kg single dose, 6 hr, read-out: Mean Choroid-RPE Concentration)?
Its concentration at 6 h is 31.5 ng/g.

What about the concentration at 24 h (New Zealand White, rabbit, choroid-RPE, oral, NZW rabbits, Day 1, 15 mg/kg single dose, 24 hr, read-out: Mean Choroid-RPE Concentration) of the same compound?
Its concentration at 24 h is 15.1 ng/g.

What about the concentration at 1 h (New Zealand White, rabbit, retina, oral, NZW rabbits, Day 1, 15 mg/kg single dose, 1 hr, read-out: Mean Retina Concentration) of the same compound?
The concentration at 1 h was 200 ng/g.

What about the concentration at 6 h (New Zealand White, rabbit, retina, oral, NZW rabbits, Day 1, 15 mg/kg single dose, 6 hr, read-out: Mean Retina Concentration) of the same compound?
Its concentration at 6 h is 26 ng/g.

And the concentration at 1 h (New Zealand White, retina, NZW rabbit, 15 mg/kg single oral dose, Day 1, 1 h, read-out: Mean retina concentration)?
Its concentration at 1 h is 200 ng/g.

And the concentration at 6 h (New Zealand White, retina, NZW rabbit, 15 mg/kg single oral dose, Day 1, 6 h, read-out: Mean retina concentration)?
Its concentration at 6 h is 26 ng/g.

What about the concentration at 1 h (New Zealand White, vitreous humor, NZW rabbit, 15 mg/kg single oral dose, Day 1, 1 h, read-out: Mean Vitreous Humor concentration) of the same compound?
The concentration at 1 h was 7.61 ng/mL.

What about the concentration at 6 h (New Zealand White, vitreous humor, NZW rabbit, 15 mg/kg single oral dose, Day 1, 6 h, read-out: Mean Vitreous Humor concentration) of the same compound?
Its concentration at 6 h is 3 ng/mL.

What about the MRTlast [16] of the same compound?
The MRTlast was 4.01 h.

What about the Tlast [16] of the same compound?
Its Tlast is 24 h.

And the MRTlast [17]?
The MRTlast was 1.49 h.

And the Tlast [17]?
Its Tlast is 6 h.

Reference: patent publication US20230126447A1, “OCULAR DRUG DEPOT FOR COMPLEMENT-MEDIATED DISORDERS” (priority 2020, published 2023)
